Measured values: US5288720A, “Angiotensin II receptor blocking 2,3,6 substituted quinazolinones” (American Cyanamid Company, priority 1993, dated 1994)

Tested on: ANGIOTENSIN II VASOPRESSOR RESPONSE
Assay: AII Challenge: blockade of angiotensin II vasopressor response in conscious SHR
Assay type: in vivo, rat (Conscious Male Okamoto-Aoki SHR)
Conditions: SHR n=2
Outline: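 Percent blockade is derived from the systolic pressure rise in mmHg, taking each rat's own predose response as 100%. Rats were conscious male Okamoto-Aoki SHR, 16-20 weeks, ~330 g, with aortic and caval cannulas under local procaine. Compound went i.v., i.p. or orally, then angiotensin II challenges (0.05 and 0.1 ug/kg i.v.) at 30-300 min.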

[1] = 3 mg/kg p.o., AII 0.05 mcg/kg IV, 30 min post dose
[2] = 3 mg/kg p.o., AII 0.05 mcg/kg IV, 60 min post dose
[3] = 3 mg/kg p.o., AII 0.05 mcg/kg IV, 90 min post dose
[4] = 3 mg/kg p.o., AII 0.05 mcg/kg IV, 120 min post dose
[5] = 3 mg/kg p.o., AII 0.05 mcg/kg IV, 180 min post dose
[6] = 3 mg/kg p.o., AII 0.1 mcg/kg IV, 30 min post dose
[7] = 3 mg/kg p.o., AII 0.1 mcg/kg IV, 60 min post dose
[8] = 3 mg/kg p.o., AII 0.1 mcg/kg IV, 90 min post dose
[9] = 3 mg/kg p.o., AII 0.1 mcg/kg IV, 120 min post dose
[10] = 3 mg/kg p.o., AII 0.1 mcg/kg IV, 180 min post dose
[11] = 10 mg/kg i.v., AII 0.05 mcg/kg IV, 30 min post dose
[12] = 10 mg/kg i.v., AII 0.05 mcg/kg IV, 60 min post dose
[13] = 10 mg/kg i.v., AII 0.05 mcg/kg IV, 90 min post dose
[14] = 10 mg/kg i.v., AII 0.05 mcg/kg IV, 120 min post dose
[15] = 10 mg/kg i.v., AII 0.05 mcg/kg IV, 180 min post dose
[16] = 10 mg/kg i.v., AII 0.05 mcg/kg IV, 240 min post dose
[17] = 10 mg/kg i.v., AII 0.05 mcg/kg IV, 300 min post dose
[18] = 10 mg/kg i.v., AII 0.1 mcg/kg IV, 30 min post dose
[19] = 10 mg/kg i.v., AII 0.1 mcg/kg IV, 60 min post dose
[20] = 10 mg/kg i.v., AII 0.1 mcg/kg IV, 90 min post dose
[21] = 10 mg/kg i.v., AII 0.1 mcg/kg IV, 120 min post dose
[22] = 10 mg/kg i.v., AII 0.1 mcg/kg IV, 180 min post dose
[23] = 10 mg/kg i.v., AII 0.1 mcg/kg IV, 240 min post dose
[24] = 10 mg/kg i.v., AII 0.1 mcg/kg IV, 300 min post dose

CCCCc1nc2ccc(C(OC)C3CCCN(C)C3=O)cc2c(=O)n1Cc1ccc(-c2ccccc2-c2nn[nH]n2)cc1 (single isomer, unassigned; isomer 1) [Example 42, 2-Butyl-6-methoxy(1-methyl-2-oxo-3-piperidinyl)methyl]-3-[[2' -1H-tetrazol-5-yl)[1,1'-biphenyl]-4-yl]methyl-4(3H)-quinazolinone isomer 1]
% Inhibition of AII vasopressor response [1]: 19%
Average Change (systolic blood pressure response to AII) [1]: 32.5 mmHg
% Inhibition of AII vasopressor response [2]: 19%
Average Change (systolic blood pressure response to AII) [2]: 32.5 mmHg
% Inhibition of AII vasopressor response [3]: 50%
Average Change (systolic blood pressure response to AII) [3]: 20 mmHg
% Inhibition of AII vasopressor response [4]: 19%
Average Change (systolic blood pressure response to AII) [4]: 32.5 mmHg
% Inhibition of AII vasopressor response [5]: -2%
Average Change (systolic blood pressure response to AII) [5]: 41 mmHg
% Inhibition of AII vasopressor response [6]: 22%
Average Change (systolic blood pressure response to AII) [6]: 35 mmHg
% Inhibition of AII vasopressor response [7]: 22%
Average Change (systolic blood pressure response to AII) [7]: 35 mmHg
% Inhibition of AII vasopressor response [8]: 13%
Average Change (systolic blood pressure response to AII) [8]: 39 mmHg
% Inhibition of AII vasopressor response [9]: 11%
Average Change (systolic blood pressure response to AII) [9]: 40 mmHg
% Inhibition of AII vasopressor response [10]: 0%
Average Change (systolic blood pressure response to AII) [10]: 45 mmHg
% Inhibition of AII vasopressor response [11]: 100%
Average Change (systolic blood pressure response to AII) [11]: 0 mmHg
% Inhibition of AII vasopressor response [12]: 86%
Average Change (systolic blood pressure response to AII) [12]: 5 mmHg
% Inhibition of AII vasopressor response [13]: 93%
Average Change (systolic blood pressure response to AII) [13]: 2.5 mmHg
% Inhibition of AII vasopressor response [14]: 93%
Average Change (systolic blood pressure response to AII) [14]: 2.5 mmHg
% Inhibition of AII vasopressor response [15]: 64%
Average Change (systolic blood pressure response to AII) [15]: 12.5 mmHg
% Inhibition of AII vasopressor response [16]: 43%
Average Change (systolic blood pressure response to AII) [16]: 20 mmHg
% Inhibition of AII vasopressor response [17]: 43%
Average Change (systolic blood pressure response to AII) [17]: 20 mmHg
% Inhibition of AII vasopressor response [18]: 100%
Average Change (systolic blood pressure response to AII) [18]: 0 mmHg
% Inhibition of AII vasopressor response [19]: 82%
Average Change (systolic blood pressure response to AII) [19]: 7.5 mmHg
% Inhibition of AII vasopressor response [20]: 76%
Average Change (systolic blood pressure response to AII) [20]: 10 mmHg
% Inhibition of AII vasopressor response [21]: 65%
Average Change (systolic blood pressure response to AII) [21]: 15 mmHg
% Inhibition of AII vasopressor response [22]: 59%
Average Change (systolic blood pressure response to AII) [22]: 17.5 mmHg
% Inhibition of AII vasopressor response [23]: 65%
Average Change (systolic blood pressure response to AII) [23]: 15 mmHg
% Inhibition of AII vasopressor response [24]: 47%
Average Change (systolic blood pressure response to AII) [24]: 22.5 mmHg
